Source: patent publication US20250042894A1, “PROTEIN TYROSINE PHOSPHATASE INHIBITORS AND METHODS OF USE THEREOF” (Calico Life Sciences LLC, priority 2021, published 2025)
Where two headings read alike, the source gives them in different places.

How the values were obtained:
[1] = biological target: T1, His tagged PTPN2 (TC45) protein (Homo sapiens, UniProt P17706); assay: Mobility Shift Assay (MSA) for PTPN2 inhibitors; type: biochemical
T1 construct: His; made in house
T1 sequence (P17706 1-387 isoform P17706-2): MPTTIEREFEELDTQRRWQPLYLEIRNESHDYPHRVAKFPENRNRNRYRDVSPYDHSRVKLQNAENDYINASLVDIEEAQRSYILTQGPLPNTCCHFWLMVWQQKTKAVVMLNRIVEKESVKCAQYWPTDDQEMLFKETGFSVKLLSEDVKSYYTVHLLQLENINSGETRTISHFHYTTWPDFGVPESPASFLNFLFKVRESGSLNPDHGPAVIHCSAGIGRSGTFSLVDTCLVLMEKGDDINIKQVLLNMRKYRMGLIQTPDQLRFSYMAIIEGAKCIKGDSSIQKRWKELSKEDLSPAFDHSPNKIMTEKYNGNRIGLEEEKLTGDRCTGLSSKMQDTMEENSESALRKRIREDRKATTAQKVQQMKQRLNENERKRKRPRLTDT
Description: Example 43: Mobility Shift Assay (MSA) Used to Determine Potency of PTPN2 Inhibitors
Compound activity was determined using in house His tagged PTPN2 (TC45) protein (SEQ ID NO: 1) in an in vitro enzymatic reaction. The enzymatic assay used to determine activity was a mobility shift assay using a LabChip EZ Reader by Caliper Life Sciences. The enzymatic reaction was carried out in assay buffer (50 mM HEPES pH 7.5, 1 mM EGTA, 10 mM EDTA, 0.01% Tween® 20, and 2 mM DTT). The compounds were dispensed on a white 384 well ProxiPlate™ (PerkinElmer Catalog #6008289) plate using the Labcyte Echo at varying concentrations (12 point, 1:3 dilution). The enzyme (at 0.5 nM) was incubated with compound for 10 minutes at room temperature. Thereafter, the substrate (phosphorylated insulin receptor probe sequence: ((OG488)-(NH—CH2—CH2—O—CH2—CH2—O—CH2—CO)-T-R-D-I—(PY)-E-T-D-Y—Y—R—K—K—NH2) (SEQ ID NO: 2) was added at 2 μM to the plates and incubated for another 10 minutes at room temperature. Finally, a quench solution (water and 4-bromo-3-(2-oxo-2-propoxyethoxy)-5-(3-{[1-(phenylmethanesulfonyl)piperidin-4-yl]amino}phenyl)thiophene-2-carboxylic acid) was added to the plates, which were then run on the EZ Reader (excitation 488 nm, emission 530 nm) to measure % conversion (the amount of phosphorylated substrate which was de-phosphorylated by PTPN2). […] The % inhibition was then used to calculate the IC50 values.

[2] = biological target: T2, His tagged full-length PTPN1 protein (Homo sapiens, UniProt P18031); assay: Mobility Shift Assay (MSA) for PTPN1 inhibitors; type: biochemical; details: enzyme 0.5 nM, substrate 2 μM, 10 minutes preincubation at room temperature
T2 construct: His; made in house
T2 sequence (P18031 1-435): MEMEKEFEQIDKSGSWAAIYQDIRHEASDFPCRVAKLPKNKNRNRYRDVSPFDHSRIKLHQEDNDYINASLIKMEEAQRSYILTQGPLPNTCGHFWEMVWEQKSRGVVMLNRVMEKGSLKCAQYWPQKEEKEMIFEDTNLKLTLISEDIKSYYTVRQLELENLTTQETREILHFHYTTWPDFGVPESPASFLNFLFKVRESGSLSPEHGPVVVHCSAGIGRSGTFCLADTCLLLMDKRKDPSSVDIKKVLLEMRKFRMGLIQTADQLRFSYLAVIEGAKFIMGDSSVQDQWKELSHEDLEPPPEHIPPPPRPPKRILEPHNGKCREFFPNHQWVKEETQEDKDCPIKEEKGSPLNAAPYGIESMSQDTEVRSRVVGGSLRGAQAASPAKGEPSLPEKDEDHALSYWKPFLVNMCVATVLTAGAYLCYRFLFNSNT
Description: Example 44: Mobility Shift Assay (MSA) Used to Determine Potency of PTPN1 Inhibitors
Compound activity was determined using in house His tagged full-length PTPN1 protein (SEQ ID NO: 3) in an in vitro enzymatic reaction. The enzymatic assay used to determine activity is a mobility shift assay using a LabChip EZ Reader by Caliper Life Sciences. The enzymatic reaction was carried out in assay buffer (50 mM HEPES pH 7.5, 1 mM EGTA, 10 mM EDTA, 0.010% Tween® 20, and 2 mM DTT). The compounds were dispensed on a white 384 well ProxiPlate™ (PerkinElmer Cat #6008289) plate using a Labcyte Echo® liquid handler at varying concentrations (12 point, 1:3 dilution). The enzyme (at 0.5 nM) was incubated with compound for 10 minutes at room temperature. Thereafter, the substrate (phosphorylated insulin receptor probe sequence: ((OG488)-(NH—CH2—CH2—O—CH2—CH2—O—CH2—CO)-T-R-D-I—(PY)-E-T-D-Y—Y—R—K—K—NH2) (SEQ ID NO: 2) was added at 2 μM to the plates and incubated for another 10 minutes at room temperature. Finally, a quench solution (water and 4-bromo-3-(2-oxo-2-propoxyethoxy)-5-(3-{[1-(phenylmethanesulfonyl)piperidin-4-yl]amino}phenyl)thiophene-2-carboxylic acid) was added to the plates, which were then run on the EZ Reader (excitation 488 nm, emission 530 nm) to measure % conversion (the amount of phosphorylated substrate which was de-phosphorylated by PTPN1). […] The % inhibition was then used to calculate the IC50 values.

[3] = tested on: IFNγ-induced STAT1 phosphorylation (pSTAT1) in B16F10 cells; assay: B16F10 Phospho-STAT1 HTRF proximal pharmacodynamic (PD) assay; type: cell-based, murine; details: B16-F10
Description: Example 45: B16F10 (Murine Melanoma Cells) Phospho-STAT1 HTRF Proximal Pharmacodynamic (PD) Assay
B16F10 cells were grown and maintained in high glucose DMEM (Gibco, Catalog #11965-092, Dun Laoghaire Co Dublin) supplemented with 10% fetal bovine serum (Gibco, Catalog #10082-139, Dun Laoghaire Co Dublin). The cells were pelleted and resuspended in high glucose DMEM without phenol red (Gibco, Catalog #11054-020, Dun Laoghaire Co Dublin), supplemented with 10% fetal bovine serum and plated in a 384 well Corning plate (product #3765, Corning, NY) at 11,000 cells per well in a volume of 20 μL. The cells were dosed with the compounds of interest using an Echo Liquid Handler (Beckman Coulter, Brea, CA) at 50 μM top dose with 3-fold dilutions down to 0.002679 μM for a 10-point dose response. The plate was incubated for 3 hours at 37° C. and subsequently treated with recombinant mouse IFNγ (R&D Systems, Catalog #485-MI, Minneapolis, MN; 100 nM final concentration) for 10 minutes at 37° C. to induce STAT1 phosphorylation followed by 3.3 μM staurosporine treatment for 1 hour at 37° C. to terminate phosphorylation. Media was then aspirated and 20 μL of 1× lysis buffer/blocking reagent (Cisbio Phospho-STAT1 kit, part #63ADK026PEH, Bedford, MA) was added. The plate was placed on a plate shaker for 30 minutes at room temperature, sealed, and stored at −80° C. until needed. To thaw, the plate was placed on shaker at room temperature until completely thawed while the antibody master mix was made (1:40 Phospho-STAT1 Eu Cryptate antibody, 1:40 Phospho-STAT1 d2 antibody, with the detection buffer; Cisbio Phospho-STAT1 kit, part #63ADK026PEH, Bedford, MA). The antibody master mix was then dispensed at 4 μL per well into a 384 ProxiPlate Plus (PerkinElmer, part #6008289, Waltham, MA) and 16 μL of lysate was added from the Corning plate to the Proxiplate using a VIAFLO 384 (INTEGRA). The plate was incubated for 3 hours at room temperature and read on an EnVision® (Perkin Elmer) plate reader with laser excitation at 335 nm and emission at 665 nm. Dotmatics Studies (Bishop's Stortford, UK) was utilized to generate all dose-response curves and calculate EC50s and are shown in Table 2.

[4] = enzyme 0.5 nM, substrate 2 μM, 10 minutes preincubation at room temperature
[5] = Table 2, 3 hours compound, then mouse IFNγ 100 nM 10 minutes, top dose 50 μM, read-out: B16F10 IFNγ Induced pSTAT1 EC50
[6] = Mus musculus, Table 3, B16F10 cells, IFNγ-induced, thiochromanes (X = S) and chromane comparators (X = O), read-out: pSTAT1 EC50
[7] = Table 3, thiochromanes (X = S) and chromane comparators (X = O)

SMILES | IC50 [2] [nM] | EC50 [3, 6] [nM] | also measured
O=C1CN(c2c(O)cc3c(c2F)C[C@H](NCCCn2cccn2)CS3)S(=O)(=O)N1 [Compound 131, 5-[(3S)-5-fluoro-7-hydroxy-3-{[3-(1H-pyrazol-1-yl)propyl]amino}-3,4-dihydro-2H-1-benzothiopyran-6-yl]-1λ^6,2,5-thiadiazolidine-1,1,3-trione] | > 100 | – | IC50 [1, 4]: 10 to 100 nM; EC50 [3, 5]: > 50000 nM
CCC(C)(C)CCN[C@@H]1CSc2cc(O)c(N3CC(=O)NS3(=O)=O)c(F)c2C1 [Compound 124, 5-{(3S)-3-[(3,3-dimethylpentyl)amino]-5-fluoro-7-hydroxy-3,4-dihydro-2H-1-benzothiopyran-6-yl}-1λ^6,2,5-thiadiazolidine-1,1,3-trione] | 10 to 100 | – | IC50 [1, 4]: < 10 nM; EC50 [3, 5]: 6940 nM
COCCCN[C@@H]1CSc2cc(O)c(N3CC(=O)NS3(=O)=O)c(F)c2C1 [Compound 130, 5-{(3S)-5-fluoro-7-hydroxy-3-[(3-methoxypropyl)amino]-3,4-dihydro-2H-1-benzothiopyran-6-yl}-1λ^6,2,5-thiadiazolidine-1,1,3-trione] | 10 to 100 | – | IC50 [1, 4]: 10 to 100 nM; EC50 [3, 5]: 4110 nM
N[C@@H]1CSc2cc(O)c(N3CC(=O)NS3(=O)=O)c(F)c2C1 [Compound 102, 5-[(3S)-3-amino-5-fluoro-7-hydroxy-3,4-dihydro-2H-1-benzothiopyran-6-yl]-1λ^6,2,5-thiadiazolidine-1,1,3-trione] | > 100 | – | Thiochromane x-fold>potency biochemical ([1]; Table 3, PTPN2 MSA IC50 of chromane comparator over thiochromane): 1.7; IC50 [1, 7]: 31 nM; IC50 [1, 4]: 10 to 100 nM
CC(C)(C)OC(=O)N[C@@H]1CSc2cc(O)c(N3CC(=O)NS3(=O)=O)c(F)c2C1 [Compound 101, tert-butyl [(3S)-5-fluoro-7-hydroxy-6-(1,1,4-trioxo-1λ^6,2,5-thiadiazolidin-2-yl)-3,4-dihydro-2H-1-benzothiopyran-3-yl]carbamate] | > 100 | – | –

The next lines start with results.

IC50 [2] [nM] | EC50 [3, 6] [nM] | SMILES | also measured
– | > 50000 | O=C1CN(c2c(O)cc3c(c2F)CC(NCC2CCC(C(F)(F)F)CC2)CO3)S(=O)(=O)N1 (stereo not drawn) [Compound C-11, reference compound] | –
– | > 50000 | O=C1CN(c2c(O)cc3c(c2F)CC(NCCCc2ccccc2)CO3)S(=O)(=O)N1 (stereo not drawn) [Compound C-8, reference compound] | –
– | > 50000 | O=C1CN(c2c(O)cc3c(c2F)CC(NCC2(CF)CC2)CO3)S(=O)(=O)N1 (stereo not drawn) [Compound C-6, reference compound] | –
– | 22600 | O=C1CN(c2c(O)cc3c(c2F)CC(NCCC2CCOC2)CO3)S(=O)(=O)N1 (stereo not drawn) [Compound C-5, reference compound] | –
– | > 50000 | O=C1CN(c2c(O)cc3c(c2F)CC(NCC2C4CCCC42)CO3)S(=O)(=O)N1 (stereo not drawn) [Compound C-10, reference compound] | –
– | > 50000 | CC1=C(CCNC2COc3cc(O)c(N4CC(=O)NS4(=O)=O)c(F)c3C2)C(C)(C)CCC1 (stereo not drawn) [Compound C-12, reference compound] | –
– | 5750 | N[C@@H]1COc2cc(O)c(N3CC(=O)NS3(=O)=O)c(F)c2C1 [Compound C-2, reference compound] | IC50 [1, 7]: 52 nM
– | 6960 | CC(C)CCN[C@@H]1COc2cc(O)c(N3CC(=O)NS3(=O)=O)c(F)c2C1 [Compound C-3, reference compound] | IC50 [1, 7]: 15 nM
– | > 50000 | CC(C)(C)OC(=O)N1CCC(CNC2COc3cc(O)c(N4CC(=O)NS4(=O)=O)c(F)c3C2)CC1 (stereo not drawn) [Compound C-13, reference compound] | –
– | 32200 | O=C1CN(c2c(O)cc3c(c2F)CC(NCCC2CCOCC2)CO3)S(=O)(=O)N1 (stereo not drawn) [Compound C-4, reference compound] | –
– | > 50000 | O=C1CN(c2c(O)cc3c(c2F)CC(NCC2CC(c4ccccc4)C2)CO3)S(=O)(=O)N1 (stereo not drawn) [Compound C-7, reference compound] | –
